Reference: the METLIN SMRT retention time set (Domingo-Almenara et al. 2019)

Assay: gradient 5% acetonitrile 3 min, to 50% in 2 min, to 85% in 15 min, held 3 min, 100 µL/min
Conditions: column: Zorbax Extend-C18 2.1 x 50 mm; eluents: water / acetonitrile, 0.1% formic acid
Procedure, shortened: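 The mobile phases were water and acetonitrile, each with 0.1% formic acid, pumped at 100 μL/min through a Zorbax Extend-C18 column (2.1 × 50 mm, 1.8 μm). Pure standards were injected as mixtures of ~100 molecules and detected by a quadrupole time-of-flight mass spectrometer in positive and negative ionization mode. Retention time came from computationally picked adduct peaks, each inspected by hand.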

| SMILES | RP-LC retention time [s] |
| --- | --- |
| O=C(NCCc1c[nH]c2ccccc12)c1cc2cccnc2n(Cc2ccccc2F)c1=O | 1080 |
| CC(C)n1cnc(S(=O)(=O)N2CCC(C(=O)NCCC3=CCCCC3)CC2)c1 | 804 |
| O=C(NC1CCCC1)c1ccc2c(c1)CCN2C(=O)C1CC1 | 751 |
| CNC(=O)c1sc(-c2ccccc2F)nc1C | 772 |
| COc1ccc(-c2nnc(N3CCC(C(=O)NCC4CCCCC4)CC3)o2)cc1 | 887 |
| O=C(Cn1nc2c(c1NC(=O)c1cnccn1)CSC2)NCc1ccco1 | 664 |
| CC(C)c1nc(NCc2ccc3c(c2)OCO3)ncc1C(=O)O | 844 |
| COc1ccc(C(=O)Nc2nccnc2C(=O)NCCN2CCCCC2)cc1 | 590 |
| Nc1cc(C2CCN(C(=O)Nc3ccc(F)cc3F)CC2)no1 | 666 |
| CCc1nc2cc(N3CCC(C(=O)N(CC)CC)CC3)cnc2nc1CC | 712 |
| O=C(CSc1nnc(-c2cccs2)o1)N1CCc2ccccc21 | 875 |
| Cc1noc(/C=C\c2ccc(S(=O)(=O)N3CCN(c4ccccn4)CC3)cc2)c1NC(=O)C1CC1 | 661 |
| COc1ccc(NC(=O)c2csc3c2CCCC3)cc1 | 894 |
| CC(C)Cc1ccc(-c2csc(NC(=O)c3cnccn3)n2)cc1 | 1130 |
| O=C(NC1CCCCCC1)C1CCCN(c2ccc(=O)n(-c3cccc(Cl)c3)n2)C1 (stereo not given) | 966 |
| CCN(CC)c1ccc(CN(C(=O)Cc2coc3ccc(C)cc23)C2CCS(=O)(=O)C2)cc1 (stereo not given) | 706 |
| CCN(CC)S(=O)(=O)c1c(C)nc2sc(C)nn12 | 760 |
| CC(C)NC(=O)C1CCCN(C(=O)Nc2ccc(NC(=O)Nc3ccc(F)cc3)cc2)C1 (stereo not given) | 714 |
| Cc1cccc(S(=O)(=O)N2CCN(c3nc4ccncc4n(CC(C)C)c3=O)CC2)c1 | 778 |
| Cc1ccc(Nc2c(C(=O)N3CCC(C)CC3)cnc3nc(C)ccc23)c(C)c1 | 674 |
| CC(C)Sc1ccc(CC(=O)NCC2(O)CCCC2)cc1 | 752 |

| SMILES | RP-LC retention time [s] |
| --- | --- |
| c1cc(N2CCSCC2)ncc1-c1noc(CN2CCOCC2)n1 | 702 |
| CC(C)NC(=O)N(CC(=O)N1CCc2sccc2C1COc1ccccc1)CC1CC1 (stereo not given) | 943 |
| CCc1c(C2CCN(C(=O)NCCc3ccccc3)CC2)noc1N | 732 |
| CC(=O)N1CCc2cc(C(=O)N3CCCCCC3)ccc21 | 723 |
| O=C(COc1ccc(Cl)cc1)NCC#CCN1CCCC1 | 544 |
| COc1ccc(CC(C)(O)CNC(=O)c2cc(C)oc2C)cc1 (stereo not given) | 739 |
| Cc1nn(-c2ccc(Cl)cc2)c(C)c1S(=O)(=O)N1CCN(c2ccccn2)CC1 | 747 |
| CCCn1c(C)c(C)c(S(=O)(=O)c2ccc(OC)cc2)c1NC(=O)C1CCCO1 (stereo not given) | 898 |
| Cc1ccc(NC(=O)N2CCCC(C)(C(=O)NCc3ccccc3)C2)cc1F (stereo not given) | 945 |
| COCCN1C(=O)c2oc3ccc(F)cc3c(=O)c2C1c1ccc([N+](=O)[O-])cc1 (stereo not given) | 803 |
| COc1ccccc1CC(=O)N1CCC2(CC1)N=C(c1ccccc1)NO2 | 791 |
| CCn1c(=O)oc2cc(S(=O)(=O)N3CCC(CC(=O)N4c5ccccc5CC4C)CC3)ccc21 (stereo not given) | 1010 |
| CN(CC1CCOCC1)C(=O)Nc1cc(F)c(F)c(F)c1 | 804 |
| CN(C(=O)Cn1c(=O)oc2ccc(C(=O)N3CCCC3)cc21)C1CCCCC1 | 761 |
| COc1ccc2[nH]c(=O)c(CCC(=O)NC3CCN(Cc4ccccc4)CC3)cc2c1 | 596 |
| COc1ccc(C(=O)Nc2nc(-c3ccc4c(c3)N(C)C(=O)CO4)c(C)s2)cc1OC | 906 |
| COC(=O)C1=CN(c2cc(Cl)ccc2OC)c2cc(F)ccc2S1(=O)=O | 909 |
| CCc1ccc(NC(=O)N2CCC(C(=O)NCc3csc(C)n3)CC2)cc1 | 660 |
| Cc1nc(-c2ccc(F)cc2)sc1C(=O)N1CCC(C(C)C(=O)N2CCOCC2)CC1 (stereo not given) | 745 |
| CCn1cc(-c2nc(C)c(C(=O)NCc3cccs3)s2)c2cccnc21 | 926 |
| CCCCn1nc2ccc(S(=O)(=O)N3CCSCC3)cn2c1=O | 847 |

| SMILES | RP-LC retention time [s] |
| --- | --- |
| CC(C)NC(=O)N1CCC(c2noc(-c3ccccc3)n2)C1 (stereo not given) | 775 |
| Cc1cccc(CNC(=O)C2CCN(S(=O)(=O)c3ccc4c(c3)NC(=O)CO4)CC2)c1 | 794 |
| Cc1cc(NC(=O)N2CCC(CN3CCCC(C)C3)CC2)ccc1Br (stereo not given) | 682 |
| Cc1ccc(NS(=O)(=O)c2cc3c(s2)CCN(C(=O)C2CC2)C3)c(F)c1 | 828 |
| O=C(CN1C(=O)CCC1=O)N1CC(c2nc(-c3cnccn3)no2)C1 | 574 |
| CCc1onc(C)c1C1CCCN1C(=O)c1c(Cl)cnn1CC (stereo not given) | 773 |
| Cc1ccc(NC(=O)CN2C(=O)CCS(=O)(=O)c3ccccc32)cc1 | 761 |
| O=C1CCN(C(=O)C2CCN(C(=O)C3CCC3)CC2)CCCCCCN1 | 626 |
| CC(C)c1cc(N2CCN(C(=O)c3ccccc3)CC2)nc2nncn12 | 594 |
| CCc1nc2cc(N3CCCC(C(=O)NCC4CC4)C3)cnc2nc1CC (stereo not given) | 762 |
| CCc1nc(-c2csc(S(=O)(=O)N3CCC(C(=O)NC4CCCCC4)CC3)c2)no1 | 955 |
| CC(C)(C)n1nnnc1C1CC2(CCOCC2)C(=O)N1Cc1ccccc1F (stereo not given) | 756 |
| CCOC(=O)c1c(NC(=O)C2CCN(S(=O)(=O)Cc3ccccc3)CC2)sc2c1CCCC2 | 1340 |
| COc1cc(OC)cc(C(=O)Nc2cccc(C(C)=O)c2)c1 | 753 |
| O=C1C(N2CCN(S(=O)(=O)c3cc(F)cc(F)c3)CC2)CCN1Cc1ccccn1 (stereo not given) | 601 |
| COCc1nc2cccnc2n1C1CCN(C(=O)Nc2cccc(Br)c2)CC1 | 768 |
| Cc1cc(F)ccc1NC(=O)c1cn2c(n1)CCCC2 | 600 |
| Cc1coc2c(C)c3oc(=O)c(CCC(=O)NCCc4ccc(S(N)(=O)=O)cc4)c(C)c3cc12 | 828 |
| O=C(NC1CCCCC1)N1CCCC(c2nnnn2-c2ccccc2)C1 (stereo not given) | 818 |
| CCc1nc2c(NC(=O)c3ccc(OC)cc3)cccn2n1 | 819 |

Now from value to compound:

| RP-LC retention time [s] | SMILES |
| --- | --- |
| 746 | O=C(Cn1c(=O)oc2ccccc21)NCCc1csc2nc(-c3ccccc3F)nn12 |
| 1190 | Cc1ccc(-c2noc(Cc3nc(-c4ccc(C)cc4C)cs3)n2)cc1 |
| 618 | CCOc1ccc(-c2[nH]ncc2CN2CCn3c(nn(C)c3=O)C2)cc1 |
| 760 | COCCc1noc(-c2cnc3nc(C)ccc3c2Nc2ccc(Cl)cc2)n1 |
| 711 | COc1cc(-c2nc3ncccn3c2Nc2ccc(C(C)C)cc2)ccc1O |
| 706 | Nc1nc(-c2ccccc2)c(C(=O)c2ccccc2)s1 |
| 1060 | CCCn1c(=O)c(C)nc2cc(-c3noc(Cc4ccc(F)cc4)n3)ccc21 |
| 980 | Fc1ccc(Nc2c(-c3ccc(Br)cc3)nc3cnccn23)cc1 |
| 632 | CCn1cc(-c2ccnc3[nH]c(-c4cccc(CN(C)C)c4)cc23)c(-c2ccc(NC(=O)N(C)C)cc2)n1 |
| 1070 | COc1cc(OC)cc(-c2nc(-c3nnn(-c4ccccc4)c3C)no2)c1 |
| 603 | COc1ccccc1NC(=O)c1ccc(CSc2ncccn2)cc1 |
| 1070 | Cc1ccc(-c2nc3cnccn3c2Nc2ccc(C)cc2C)cc1 |
| 748 | COc1ccc(-c2cn3c(CC(=O)N4CCc5ccccc54)csc3n2)cc1OC |
| 900 | COc1ccc(-c2ccc(=O)n(Cc3nc(-c4ccccc4)no3)n2)cc1OC |
| 1190 | CCc1ccc(-c2noc(Cn3c(=O)n(Cc4ccc(OC)cc4)c(=O)c4sccc43)n2)cc1 |
| 830 | COc1ccc(NC(=O)Cn2nc3cc(-c4ccccc4)nc(C)n3c2=O)cc1OC |
| 768 | CCn1ccc(-c2nc(CCS(=O)(=O)c3ccccc3)no2)n1 |
| 856 | CCOc1ccc(-c2noc(CSc3nccn3-c3ccccc3)n2)cc1OC |
| 827 | Cc1ccc(-c2cn3ccn(-c4ccc(F)cc4)c(=O)c3n2)cc1 |
| 808 | Cc1cccc(Nc2nc(C(=O)NCCc3ccco3)nc3ccccc23)c1 |
| 660 | Fc1ccc(-c2noc3ncnc(N4CCN(c5ccccn5)CC4)c23)cc1 |
| 750 | COc1ccccc1-c1noc(C2CCCN2C(=O)c2sc(C)nc2C)n1 (stereo not given) |
| 824 | CCOc1cc(-c2ccc(C)cc2)nc2ccc(NC(=O)c3cccs3)cc12 |
| 783 | CC(C)(C)NC(=O)c1ccc2nc(-c3ccccc3)cn2c1 |
| 1110 | O=S(=O)(c1ccc(F)cc1F)N1CCc2nc(-c3ccc(F)cc3)ncc2C1 |
| 1200 | CSc1ccc(-c2noc(Cn3ncn4nc(-c5ccccc5Cl)cc4c3=O)n2)cc1 |
| 710 | COc1ccc(C(=O)Nc2ccc3c(c2)Sc2ncccc2C(=O)N3C)cn1 |
| 1050 | Cc1ccc(-c2noc(Cn3nc(-c4ccccc4F)ccc3=O)n2)cc1 |
